Legend:
[1] = system: HCN channel Ih currents in VTA DA neurons; format: cell-based, mice
VTA DA neurons = format: cell-based, mice; details: 750 µM local application for 3 min; cell-attached; average
[2] = cited from earlier work

SMILES	percent inhibition of Ih currents in VTA DA neurons [1]	percent inhibition of firing rate in VTA DA neurons (VTA DA neurons) [%]	ability to cross the blood-brain barrier (BBB) [2]
COc1ccc(C(F)(F)CN(C)CCCN2CCc3cc(OC)c(OC)cc3CC2=O)cc1OC [compound 8]	no efficacy		
COc1ccc(CCN2CCO[C@H](CN3CCc4cc(OC)c(OC)cc4CC3=O)C2)cc1OC [compound 6]	less efficacious than Cilobradine		
COc1cc2c(cc1OC)CC(=O)N(C[C@H]1CCCN(CCOc3ccccc3)C1)CC2 [compound 3]	less efficacious than Cilobradine		
COc1cc2c(cc1OC)CC(=O)N(C[C@H]1CCCN(CCOc3ccccc3F)C1)CC2 [compound 4]	less efficacious than Cilobradine		
COc1ccc(CCN(C)CCCN2CCc3cc(OC)c(OC)cc3CC2=O)cc1OC [Zatebradine]	significant inhibition of the Ih current	59.7	
COc1cc2c(cc1OC)CC(=O)N(CCCN(C)C[C@H]1Cc3cc(OC)c(OC)cc31)CC2 [Ivabradine]	significant inhibition of the Ih current	61.1	limited abilities to cross the blood-brain barrier
COc1cc2c(cc1OC)CC(=O)N(C[C@H]1CCCN(C(=O)OC(C)(C)C)C1)CC2 [compound 11]	less than half the efficacy of Cilobradine		
